Holding throughout (assay): NCI tumour cell line growth inhibition, 48 h
The test system of experiment [1] is A549.
Experiment [2] relates to ACHN.
The subject of experiment [3] is COLO 205.
The subject of experiment [4] is DU-145.
The subject of experiment [5] is HCC 2998.
Experiment [6] deals with HCT-116.
For experiment [7], the system named is HT-29.
Experiment [8] concerns LOX IMVI.
The subject of experiment [9] is MDA-MB-435.
Experiment [10] deals with Malme-3M.
The test system of experiment [11] is OVCAR-3.
Experiment [12] concerns OVCAR-4.
The test system of experiment [13] is OVCAR-5.
The test system of experiment [14] is SF-539.
For experiment [15], the system named is SN12C.
The subject of experiment [16] is SNB-75.
The test system of experiment [17] is SR.
For experiment [18], the system named is T47D.
Experiment [19] deals with UACC-62.
In experiment [20] the test system is HOP-18.

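48-hour exposure; five concentrations; linearly interpolated endpoints. GI50 marks 50% less growth.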 Calls of active or inactive are those of the source. No stated cut-off is given here; in the data, active = GI50 up to about 1.1 µM and inactive = higher.

In the case of `COc1ccc(N2C(=O)C3c4[nH]c5c(C)cccc5c4C4CCC(C(C)(C)C)CC4C3C2=O)cc1` (centres undefined), the GI50 in [1] is 7 µM (inactive); in experiment [2] it was 5.12 µM (inactive); in [3], 5.97 µM (inactive); in experiment [4], > 10 µM (inactive); in [5], 2.48 µM (inactive); in experiment [6], 5.01 µM (inactive). Also, the GI50 in [7] was 2.32 µM (inactive); in [8], 2.16 µM (inactive); in experiment [9] it was > 10 µM (inactive); in experiment [10], > 10 µM (inactive); in experiment [11], > 10 µM (inactive); in [12], > 10 µM (inactive). Further, the GI50 in experiment [13] is > 10 µM (inactive); in experiment [14] it was 9.42 µM (inactive); in experiment [15], 8.79 µM (inactive); in experiment [16], > 10 µM (inactive); in experiment [17] it was 3.44 µM (inactive); in experiment [18], > 10 µM (inactive). Also, the GI50 in experiment [19] is > 10 µM (inactive).
Take `O=[N+]([O-])c1ccccc1S(=O)(=O)c1ccccc1`: the GI50 in [1], in experiment [2], in experiment [3], in experiment [5], in experiment [6] and in experiment [20] was > 100 µM (inactive) each time. The GI50 in experiment [7] is > 100 µM (inactive); in experiment [8] it was > 100 µM (inactive); in experiment [10], > 100 µM (inactive); in experiment [11] it was > 100 µM (inactive); in experiment [12], 52.6 µM (inactive); in [13], > 100 µM (inactive). Besides, the GI50 in [14] was > 100 µM (inactive); in [15], > 100 µM (inactive); in experiment [16] it was 23 µM (inactive); in experiment [17] it was > 100 µM (inactive); in [19] it was 54.7 µM (inactive).
As to `Cc1ccc(NC(=O)CC2Sc3ccccc3NC2=O)cc1C` (centres undefined), the GI50 in experiment [1] was 41.2 µM (inactive); in experiment [2] it was 54.8 µM (inactive); in experiment [3] it was 65.2 µM (inactive); in experiment [5], > 100 µM (inactive); in [6], 41.6 µM (inactive); in experiment [20] it was > 100 µM (inactive). In addition, the GI50 in [7] is 67.1 µM (inactive); in experiment [8], 38.6 µM (inactive); in [10], > 100 µM (inactive); in experiment [11], 70.8 µM (inactive); in [12], 56.2 µM (inactive); in experiment [13] it was > 100 µM (inactive). For the same compound, the GI50 in experiment [14] was 85.3 µM (inactive); in experiment [15], > 100 µM (inactive); in [16], 39.8 µM (inactive); in experiment [17], > 100 µM (inactive); in experiment [19] it was 75.3 µM (inactive).
`C/C=C/CC(C)[C@@H](O)[C@H](NC)C(=O)O` (some centres undefined): the GI50 in [1], in [2], in [3], in experiment [5], in experiment [20] and in [7] was > 100 µM (inactive) throughout. In addition, the GI50 in experiment [8], in [10], in [11], in experiment [12], in experiment [13] and in experiment [14] was > 100 µM (inactive) each time. Further, the GI50 in experiment [15], in experiment [16] and in experiment [19] was > 100 µM (inactive) throughout.
Regarding `COC(=O)CCC(=O)Nc1ccc(Cl)cc1C`, the GI50 in experiment [1] was > 22 µM (inactive); in experiment [2], > 37.2 µM (inactive); in [3], > 64.9 µM (inactive); in [5], > 100 µM (inactive); in experiment [6] it was > 100 µM (inactive); in experiment [20] it was > 100 µM (inactive). In addition, the GI50 is > 100 µM (inactive) in experiment [7]; > 25.8 µM (inactive) in [8]; > 100 µM (inactive) in experiment [10]; 43.9 µM (inactive) in experiment [11]; > 75.7 µM (inactive) in experiment [12]; > 100 µM (inactive) in experiment [13]. In addition, the GI50 is > 100 µM (inactive) in experiment [14]; > 23.2 µM (inactive) in experiment [15]; > 74.5 µM (inactive) in [16]; 5.47 µM (inactive) in experiment [17]; 14.3 µM (inactive) in [19].
`O=C(/C=C\c1ccc(/C=C/C(=O)Nc2cccc(C3=NCCCN3)c2)cc1)Nc1cccc(C2=NCCCN2)c1`: the GI50 in experiment [1] was > 100 µM (inactive); in [3], 4.06 µM (inactive); in experiment [5], 69.2 µM (inactive); in experiment [6], > 100 µM (inactive); in [20] it was > 100 µM (inactive); in experiment [7], > 100 µM (inactive). The GI50 in experiment [8], in experiment [10], in experiment [11], in [12], in experiment [13] and in experiment [14] was > 100 µM (inactive) throughout. Also, the GI50 is > 100 µM (inactive) in experiment [15] and > 69.3 µM (inactive) in [16].
As for `CC(=O)Nc1ccc2c3c(cc(O)c2c1)N(C(=O)CCCCCC(=O)Nc1ccc2c4c(cc(O)c2c1)N(C(=O)OC(C)(C)C)CC4CCl)CC3CCl` (centres undefined), the GI50 was 12.3 µM (inactive) in experiment [1]; 3.54 µM (inactive) in experiment [2]; 1.99 µM (inactive) in experiment [3]; 0.463 µM (active) in experiment [4]; 1.42 µM (inactive) in [5]; 1.67 µM (inactive) in experiment [6]. The GI50 in experiment [7] was 3.15 µM (inactive); in experiment [8] it was 1.92 µM (inactive); in experiment [9], 1.63 µM (inactive); in experiment [10], 2.17 µM (inactive); in experiment [11], 1.57 µM (inactive); in experiment [12], 5.36 µM (inactive). The GI50 in experiment [13] is 10 µM (inactive); in [14], 2.37 µM (inactive); in experiment [15], 3.45 µM (inactive); in [16], 1.49 µM (inactive); in [17] it was 0.118 µM (active); in [18], 0.541 µM (active). Besides, the GI50 in experiment [19] is 1.39 µM (inactive).
Regarding `CCN(CC)CCC(=O)c1ccccc1`, the GI50 is > 100 µM (inactive) in [1]; 16.2 µM (inactive) in experiment [2]; > 10 µM (inactive) in experiment [3]; 56 µM (inactive) in experiment [5]; 17.3 µM (inactive) in [6]; 15.3 µM (inactive) in experiment [20]. Besides, the GI50 in experiment [7] was 28.2 µM (inactive); in [8], 19.4 µM (inactive); in [11], 18.6 µM (inactive); in experiment [12] it was 20.5 µM (inactive); in [13], 21.5 µM (inactive); in [14], 24.8 µM (inactive). The GI50 in experiment [15] was 19.3 µM (inactive); in [16], 12.5 µM (inactive); in experiment [17] it was 14 µM (inactive); in [19], > 10 µM (inactive).

For the origin of these results see ChEMBL document CHEMBL1201862, “PubChem BioAssay data set” (2004).
